From patent publication US11795177B2, “Substituted quinoline analogs as aldehyde dehydrogenase 1A1 (ALDH1A1) inhibitors” (THE UNITED STATES OF AMERICA, AS REPRESENTED BY THE …, priority 2017, dated 2023)
pIC50: −log10 of the molar value. Where a name gives a salt, the structure may show the parent alone. Read-outs that look alike come from different tables or passages of the source.

What was measured:
[1] = biological target: T1, ALDH1A1 enzyme (Homo sapiens, UniProt P00352); assay: ALDH1A1 enzymatic assay (in vitro); format: biochemical
T1 sequence (P00352 1-501): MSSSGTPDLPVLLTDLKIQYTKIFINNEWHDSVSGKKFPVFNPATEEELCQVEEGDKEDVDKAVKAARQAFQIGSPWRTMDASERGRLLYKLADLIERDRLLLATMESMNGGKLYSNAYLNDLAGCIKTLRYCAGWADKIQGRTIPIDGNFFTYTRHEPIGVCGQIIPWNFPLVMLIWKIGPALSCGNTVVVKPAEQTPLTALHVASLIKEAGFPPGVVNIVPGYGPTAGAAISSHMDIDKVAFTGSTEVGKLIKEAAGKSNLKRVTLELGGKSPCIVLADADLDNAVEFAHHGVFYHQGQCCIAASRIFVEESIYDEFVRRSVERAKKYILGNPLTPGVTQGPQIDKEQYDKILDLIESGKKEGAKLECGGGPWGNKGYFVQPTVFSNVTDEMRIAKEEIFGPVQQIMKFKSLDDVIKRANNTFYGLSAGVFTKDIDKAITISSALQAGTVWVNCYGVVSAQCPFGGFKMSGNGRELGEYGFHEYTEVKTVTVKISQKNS
Summary of the method: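 ALDH1A1 (20 nM final) in 100 mM HEPES pH 7.5, 0.01% Tween 20 was preincubated 15 min at RT with compound (968 pM–57.2 μM final), then started with 1 mM NAD+ and 80 μM propionaldehyde. NADH fluorescence (ex 340/em 450 nm) followed kinetically for 10 min; change normalized to no-inhibitor and no-enzyme controls for percent inhibition and curve fitting.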

[2] = tested on: MIA PaCa-2 cells; assay: MIA PaCa2 cell-based assay (1,536-well high-content imaging ALDEFLUOR assay); set-up: species or system human; conditions: Homo sapiens, 0.5 h, ALDEFLUOR BAAA substrate 500 nM, 30 minutes
Summary of the method: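 High-content ALDEFLUOR imaging readout: BAA-retaining cells in FITC channel scored against Hoechst-counted nuclei. Before imaging, MIA PaCa-2 cells seeded at 1,000 per well received final 500 nM BAAA and 0.5 nM Hoechst with compounds in 16-point series (1.4 nM to 47.8 μM), 30 min, 37° C.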

[3] = ALDH1A1 enzyme 20 nM, NAD+ 1 mM, propionaldehyde 80 μM, read-out: ALDH1A1 IC50

Row | Compound | pIC50 [1, 3] | pIC50 [2] | pIC50 [1]
1 | COc1cc2ncc(C(=O)N3CCN(S(=O)(=O)C4CC4)CC3)c(N3CCC(C)(C#N)CC3)c2cc1OC [Example 114, 1-(3-(4-(cyclopropylsulfonyl)piperazine-1-carbonyl)-6,7-dimethoxyquinolin-4-yl)-4-methylpiperidine-4-carbonitrile] | > 6.30 | 5.00 to 6.00 | 
2 | CC1(O)CCN(C(=O)c2cnc3ccc(F)cc3c2-c2ccc(C3(C#N)CC3)cc2)CC1 [Cpd. 350, 1-(4-(6-fluoro-3-(4-hydroxy-4-methylpiperidine-1-carbonyl)quinolin-4-yl)phenyl)cyclopropane-1-carbonitrile] | > 6.30 | 5.00 to 6.00 | 
3 | O=C(c1cnc2ccc(F)cc2c1N1CCC2(CC1)OCCO2)N1CCN(S(=O)(=O)N2CCCC2)CC1 [Example 153, (6-fluoro-4-(1,4-dioxa-8-azaspiro[4.5]decan-8-yl)quinolin-3-yl)(4-(pyrrolidin-1-ylsulfonyl)piperazin-1-yl)methanone] | > 6.30 | < 5.00 | 
4 | O=C(c1cnc2ccc(F)cc2c1N1CCC2(CC1)OCCO2)N1CCCN(C(=O)C2CC2)CC1 [Example 69, (4-(cyclopropanecarbonyl)-1,4-diazepan-1-yl)(6-fluoro-4-(1,4-dioxa-8-azaspiro[4.5]decan-8-yl)quinolin-3-yl)methanone] | > 6.30 | < 5.00 | 
5 | CC1(C#N)CCN(c2c(C(=O)N3CCN(C(=O)N4CCCC4)CC3)cnc3c(F)cc(F)cc23)CC1 [Example 165, 1-(6,8-difluoro-3-(4-(pyrrolidine-1-carbonyl)piperazine-1-carbonyl)quinolin-4-yl)-4-methylpiperidine-4-carbonitrile] | 5.00 to 6.00 | 5.00 to 6.00 | 
6 | C[C@@H]1CN(C(=O)C2CC2)C[C@H](C)N1C(=O)c1cnc2ccc(F)cc2c1N1CCC(C)(C#N)CC1 [Example 240, 1-(3-((2S*,6R*)-4-(cyclopropanecarbonyl)-2,6-dimethylpiperazine-1-carbonyl)-6-fluoroquinolin-4-yl)-4-methylpiperidine-4-carbonitrile] | 5.00 to 6.00 | < 5.00 | 
7 | CS(=O)(=O)N1CCN(C(=O)c2cnc3ccc(F)cc3c2N2CCC3(CCOC3=O)CC2)CC1 [Example 249, 8-(6-fluoro-3-(4-(methylsulfonyl)piperazine-1-carbonyl)quinolin-4-yl)-2-oxa-8-azaspiro[4.5]decan-1-one] | > 6.30 | 5.00 to 6.00 | 
8 | O=C(c1cnc2ccc(F)cc2c1N1CCC2(CC1)OCCO2)N1CCN(C(=O)N2CCCC2)CC1 [Example 150, (6-fluoro-4-(1,4-dioxa-8-azaspiro[4.5]decan-8-yl)quinolin-3-yl)(4-(pyrrolidine-1-carbonyl)piperazin-1-yl)methanone] | > 6.30 | < 5.00 | 
9 | O=C(C1CC1)C1CCN(C(=O)c2cnc3ccc(F)cc3c2N2CCC3(CC2)OCCO3)CC1 [Example 191, (4-(cyclopropanecarbonyl)piperidin-1-yl)(6-fluoro-4-(1,4-dioxa-8-azaspiro[4.5]decan-8-yl)quinolin-3-yl)methanone] | > 6.30 | 6.00 to 6.30 | 
10 | CCC(=O)N1CCN(C(=O)c2cnc3cc(OC)ccc3c2N2CCC(C)(C#N)CC2)CC1 [Example 102, 1-(7-methoxy-3-(4-propionylpiperazine-1-carbonyl)quinolin-4-yl)-4-methylpiperidine-4-carbonitrile] | > 6.30 | 5.00 to 6.00 | 
11 | CCNC(=O)N1CCN(C(=O)c2cnc3ccccc3c2N2CCC(C)(C#N)CC2)CC1 [Example 99, 4-(4-(4-cyano-4-methylpiperidin-1-yl)quinoline-3-carbonyl)-N-ethylpiperazine-1-carboxamide] | 5.00 to 6.00 | < 5.00 | 
12 | COc1ccc2ncc(C(=O)N3CCC4(CC3)OCCO4)c(N3CCC4(CC3)OCCO4)c2c1 [Example 37, (6-methoxy-4-(1,4-dioxa-8-azaspiro[4.5]decan-8-yl)quinolin-3-yl)(1,4-dioxa-8-azaspiro[4.5]decan-8-yl)methanone] |  | 6.00 to 6.30 | > 6.30
13 | COc1ccc2c(N3CCC(C)(C#N)CC3)c(C(=O)N3CCN(S(=O)(=O)C4CC4)CC3)cnc2c1 [Example 106, 1-(3-(4-(cyclopropylsulfonyl)piperazine-1-carbonyl)-7-methoxyquinolin-4-yl)-4-methylpiperidine-4-carbonitrile] | > 6.30 | 5.00 to 6.00 | 
14 | COc1cc2ncc(C(=O)N3CCN(C(=O)C4CC4)CC3)c(N3CCC(C)(C#N)CC3)c2cc1OC [Example 109, 1-(3-(4-(cyclopropanecarbonyl)piperazine-1-carbonyl)-6,7-dimethoxyquinolin-4-yl)-4-methylpiperidine-4-carbonitrile] | > 6.30 | 5.00 to 6.00 | 
15 | COc1ccc2c(N3CCC(C)(C#N)CC3)c(C(=O)N3CCN(C(C)=O)CC3)cnc2c1 [Example 104, 1-(3-(4-acetylpiperazine-1-carbonyl)-7-methoxyquinolin-4-yl)-4-methylpiperidine-4-carbonitrile] | > 6.30 | < 5.00 | 
16 | COc1ccc2ncc(C(=O)N3CCN(C(=O)C4CC4)CC3)c(N3CCC4(CCCC4)CC3)c2c1 [Example 17, (4-(cyclopropanecarbonyl)piperazin-1-yl)(6-methoxy-4-(8-azaspiro[4.5]decan-8-yl)quinolin-3-yl)methanone, TFA] | > 6.30 | 5.00 to 6.00 | 
17 | CCC(=O)N1CCN(C(=O)c2cnc3cc(OC)c(OC)cc3c2N2CCC(C)(C#N)CC2)CC1 [Example 110, 1-(6,7-dimethoxy-3-(4-propionylpiperazine-1-carbonyl)quinolin-4-yl)-4-methylpiperidine-4-carbonitrile] | > 6.30 | 5.00 to 6.00 | 
18 | CC1(C#N)CCN(c2c(C(=O)N3CCN(S(C)(=O)=O)CC3)cnc3c(F)cc(F)cc23)CC1 [Example 135, 1-(6,8-difluoro-3-(4-(methylsulfonyl)piperazine-1-carbonyl)quinolin-4-yl)-4-methylpiperidine-4-carbonitrile] | > 6.30 | 5.00 to 6.00 | 
19 | O=C(c1cnc2c(F)c(F)c(F)cc2c1N1CCC2(CC1)OCCO2)N1CCN(C(=O)C2CC2)CC1 [Example 124, (4-(cyclopropanecarbonyl)piperazin-1-yl)(6,7,8-trifluoro-4-(1,4-dioxa-8-azaspiro[4.5]decan-8-yl)quinolin-3-yl)methanone] | > 6.30 | 5.00 to 6.00 | 
20 | CC1(C#N)CCN(c2c(C(=O)N3CCN(S(C)(=O)=O)CC3)cnc3ccccc23)CC1 [Example 97, 4-methyl-1-(3-(4-(methylsulfonyl)piperazine-1-carbonyl)quinolin-4-yl)piperidine-4-carbonitrile] | > 6.30 | < 5.00 | 
21 | CS(=O)(=O)N1CCN(C(=O)c2cnc3ccc(F)cc3c2-c2ccc(C3(CO)CC3)cc2)CC1 [Example 280, (6-fluoro-4-(4-(1-(hydroxymethyl)cyclopropyl)phenyl)quinolin-3-yl)(4-(methylsulfonyl)piperazin-1-yl)methanone] | > 6.30 | > 6.30 | 
22 | CN(C)S(=O)(=O)N1CCN(C(=O)c2cnc3ccc(Cl)cc3c2N2CCC(C#N)(c3ccccc3)CC2)CC1 [Cpd. 314, 4-(6-chloro-4-(4-cyano-4-phenylpiperidin-1-yl)quinoline-3-carbonyl)-N,N-dimethylpiperazine-1-sulfonamide] | > 6.30 | > 6.30 | 
23 | CN(C)S(=O)(=O)N1CCN(C(=O)c2cnc3cc(F)c(F)cc3c2N2CCC3(CC2)OCCO3)CC1 [Example 172, 4-(6,7-difluoro-4-(1,4-dioxa-8-azaspiro[4.5]decan-8-yl)quinoline-3-carbonyl)-N,N-dimethylpiperazine-1-sulfonamide] | > 6.30 | 6.00 to 6.30 | 
24 | CS(=O)(=O)N1CCN(C(=O)c2cnc3ccc(F)cc3c2N2CCN(S(=O)(=O)c3ccccc3)CC2)CC1 [Example 254, (6-fluoro-4-(4-(phenylsulfonyl)piperazin-1-yl)quinolin-3-yl)(4-(methylsulfonyl)piperazin-1-yl)methanone] | > 6.30 | > 6.30 | 
25 | N#CC1(c2ccccc2F)CCN(c2c(C(=O)N3CCN(C(=O)C4CC4)CC3)cnc3ccc(F)cc23)CC1 [Example 276, 1-(3-(4-(cyclopropanecareonyl)piperazine-1-carbonyl)-6-fluoroquinolin-4-yl)-4-(2-fluorophenyl)piperidine-4-carbonitrile] | > 6.30 | > 6.30 | 
26 | CC(=O)N1CCN(C(=O)c2cnc3ccccc3c2N2CCC(C)(C#N)CC2)CC1 [Example 96, 1-(3-(4-acetylpiperazine-1-carbonyl)quinolin-4-yl)-4-methylpiperidine-4-carbonitrile] | 5.00 to 6.00 | < 5.00 | 
